The record followed here is patent US20230181536A1, “ANTICANCER COMBINATION THERAPY WITH N-(1-ACRYLOYL-AZETIDIN-3-YL)-2-((1H-INDAZOL-3-YL)AMINO)METHYL)-1H-IMIDAZOLE-5-CARBOXAMIDE INHIBITOR OF KRAS-G12C” (TAIHO PHARMACEUTICAL CO., LTD., priority 2020, published 2023).

Molecules are shown by their SMILES.

The target in this test is T1, KRAS G12C (Homo sapiens, UniProt P01116, G12C).
T1 construct: KRAS G12C (amino acid region: 1-169)
T1 sequence (P01116 1-169 isoform P01116-2 G12C): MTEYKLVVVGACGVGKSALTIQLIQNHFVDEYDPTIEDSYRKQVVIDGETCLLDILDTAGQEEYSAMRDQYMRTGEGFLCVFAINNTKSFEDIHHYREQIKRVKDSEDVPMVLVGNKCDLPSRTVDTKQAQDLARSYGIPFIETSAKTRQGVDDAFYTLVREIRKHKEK
Description: Inhibitory activity on the KRAS G12C nucleotide (GDP-GTP) exchange reaction. As to conditions: Bodipy FL GDP-bound KRAS G12C 25 nM; preincubation at 25° C. for 4 hours; SOS1 100 nM, GppNHp 1 μM, reaction for 30 minutes. Type of test: biochemical. The procedure, abridged:
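Bodipy FL-GDP-loaded KRAS G12C (aa 1-169, 25 nM) preincubated with compound 4 h at 25 °C in pH 7.5 Tris buffer, 5% DMSO; exchange started with SOS1 (aa 564-1049, 100 nM) and 1 μM GppNHp for 30 min. Fluorescence change (ex 485/em 520 nm) normalized to DMSO and no-GppNHp controls; IC50 calculated.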
`C=CC(=O)N1C[C@@H](CO)[C@@H](NC(=O)c2c(C)nc(CNc3n[nH]c4cc(Cl)c(C(C)(C)C)cc34)n2C)C1` [Example 58, N-((3R,4R)-1-acryloyl-4-(hydroxymethyl)pyrrolidin-3-yl)-2-(((5-(tert-butyl)-6-chloro-1H-indazol-3-yl)amino)methyl)-1,4-dimethyl-1H-imidazole-5-carboxamide] had an IC50 of 28 nM.

For the compound `C=CC(=O)N1CC(NC(=O)c2c(Cl)nc(CNc3n[nH]c4cc(Cl)c(C(=C)C(F)(F)F)cc34)n2C(C)C)C1` [Example 43, N-(1-acryloylazetidin-3-yl)-4-chloro-2-(((6-chloro-5-(3,3,3-trifluoroprop-1-en-2-yl)-1H-indazol-3-yl)amino)methyl)-1-isopropyl-1H-imidazole-5-carboxamide], inhibition was half-maximal at 809 nM (IC50).

Consider `C=CC(=O)N1CC(NC(=O)c2c(C(F)F)nc(CNc3n[nH]c4cc(Cl)c(C(C)(C)C)cc34)n2CC2CCCN2C(C)C)C1` (stereo not drawn) [Example 95, N-(1-acryloylazetidin-3-yl)-2-(((5-(tert-butyl)-6-chloro-1H-indazol-3-yl)amino)methyl)-4-(difluoromethyl)-1-((1-isopropylpyrrolidine-2-yl)methyl)-1H-imidazole-5-carboxamide], for which the IC50 was 44 nM.

`C=CC(=O)N1CC(NC(=O)c2c(C)nc(CNc3n[nH]c4cc(Cl)c(C(C)(C)C)cc34)n2CCN(C)C)C1` [Example 16, N-(1-acryloylazetidin-3-yl)-2-(((5-(tert-butyl)-6-chloro-1H-indazol-3-yl)amino)methyl)-1-(2-(dimethylamino)ethyl)-4-methyl-JH-imidazole-5-carboxamide]: the IC50 amounted to 25 nM.

Regarding `C=CC(=O)N1CC(NC(=O)c2c(C)nc(CNc3n[nH]c4cc(Cl)c(C(C)(C)C)cc34)n2CCOC)C1` [Example 14, N-(1-acryloylazetidin-3-yl)-2-(((5-(tert-butyl)-6-chloro-1H-indazol-3-yl)amino)methyl)-1-(2-methoxyethyl)-4-methyl-1H-imidazole-5-carboxamide], the IC50 worked out at 24 nM.

In turn, `C=CC(=O)N1C[C@H](NC(=O)c2c(C)nc(CNc3n[nH]c4cc(Cl)c(C(C)(C)C)cc34)n2C)[C@@H](O)C1` [Example 62, N-((3S,4S)-1-acryloyl-4-hydroxypyrrolidin-3-yl)-2-(((5-(tert-butyl)-6-chloro-1H-indazol-3-yl)amino)methyl)-1,4-dimethyl-1H-imidazole-5-carboxamide] yielded an IC50 of 96 nM.

Turning to `C=CC(=O)N1CC(NC(=O)c2c(Cl)nc(CNc3n[nH]c4cc(Cl)c(C(C)(C)C)cc34)n2[C@H]2C[C@H](C)CC[C@H]2C(C)C)C1` [Example 111, N-(1-acryloylazetidin-3-yl)-2-(((5-(tert-butyl)-6-chloro-1H-indazol-3-yl)amino)methyl)-4-chloro-1-((1S,2S,5R)-2-isopropyl-5-methylcyclohexyl)-JH-imidazole-5-carboxamide], inhibition was half-maximal at 15 nM (IC50).

With `C=CC(=O)N1CCC(NC(=O)c2c(C)nc(CNc3n[nH]c4cc(Cl)c(C(C)(C)C)cc34)n2C)C1` (stereo not drawn) [Example 48, N-(1-acryloylpyrrolidin-3-yl)-2-(((5-(tert-butyl)-6-chloro-1H-indazol-3-yl)amino)methyl)-1,4-dimethyl-1H-imidazole-5-carboxamide], the IC50 turned out to be 126 nM.

`[2H]C([2H])(Nc1n[nH]c2cc(Cl)c(C(C)(C)C)cc12)c1nc(C(F)F)c(C(=O)NC2CN(C(=O)C=C)C2)n1C(C)C` [Example 36, N-(1-acryloylazetidin-3-yl)-2-(((5-(tert-butyl)-6-chloro-1H-indazol-3-yl)amino)methyl-d2)-4-(difluoromethyl)-1-isopropyl-1H-imidazole-5-carboxamide] came in with a half-inhibitory concentration (IC50) of 19 nM.

For `C=CC(=O)N1CC(NC(=O)c2c(Cl)nc(CNc3n[nH]c4cc(Cl)c(C(C)(C)C)cc34)n2[C@@H]2CCN(C(C)C)C2)C1` [Example 114, (R)-N-(1-acryloylazetidin-3-yl)-2-(((5-(tert-butyl)-6-chloro-1H-indazol-3-yl)amino)methyl)-4-chloro-1-(1-isopropylpyrrolidin-3-yl)-1H-imidazole-5-carboxamide], the IC50 came to 7 nM.

`C=CC(=O)N1CC(NC(=O)c2c(C)nc(CNc3n[nH]c4ccc(C(C)(C)C)cc34)n2C(C)C)C1` [Example 42, N-(1-acryloylazetidin-3-yl)-2-(((5-(tert-butyl)-1H-indazol-3-yl)amino)methyl)-1-isopropyl-4-methyl-1H-imidazole-5-carboxamide] showed an IC50 of 68 nM.

`C=CC(=O)N1CC(NC(=O)c2c(Cl)nc(CNc3n[nH]c4cc(Cl)c(C(C)(C)C)cc34)n2C2CN(C(C)C)C2)C1` [Example 107, N-(1-acryloylazetidin-3-yl)-2-(((5-(tert-butyl)-6-chloro-1H-indazol-3-yl)amino)methyl)-4-chloro-1-(1-isopropylazetidin-3-yl)-1H-imidazole-5-carboxamide] showed an IC50 of 4 nM.

In turn, `C=CC(=O)N1CC(NC(=O)c2c(C)nc(CNc3n[nH]c4cc(Cl)c(C(C)(C)C)cc34)n2C(F)F)C1` [Example 21, N-(1-acryloylazetidin-3-yl)-2-(((5-(tert-butyl)-6-chloro-1H-indazol-3-yl)amino)methyl)-1-(difluoromethyl)-4-methyl-1H-imidazole-5-carboxamide] came in with an IC50 of 58 nM.

The compound `C=CC(=O)N1CC(NC(=O)c2c(Cl)nc(CNc3n[nH]c4cc(Cl)c(C(C)(C)C)cc34)n2C2CCCOC2)C1` (stereo not drawn) [Example 104, N-(1-acryloylazetidin-3-yl)-2-(((5-(tert-butyl)-6-chloro-1H-indazol-3-yl)amino)methyl)-4-chloro-1-(tetrahydro-2H-pyran-3-yl)-1H-imidazole-5-carboxamide] had an IC50 of 9 nM.

The compound `C=CC(=O)N1C[C@@H](CN(C)C)[C@@H](NC(=O)c2c(C)nc(CNc3n[nH]c4cc(Cl)c(C(C)(C)C)cc34)n2C)C1` [Example 68, N-((3R,4R)-1-acryloyl-4-((dimethylamino)methyl)pyrrolidin-3-yl)-2-(((5-(tert-butyl)-6-chloro-1H-indazol-3-yl)amino)methyl)-1,4-dimethyl-1H-imidazole-5-carboxamide] registered an IC50 of 99 nM.

`C=CC(=O)N1CC(NC(=O)c2c(Cl)nc(CNc3n[nH]c4cc(Cl)c(C(C)(C)C)cc34)n2[C@@H]2CCN(C3COC3)C2)C1` [Example 121, (R)-N-(1-acryloylazetidin-3-yl)-2-(((5-(tert-butyl)-6-chloro-1H-indazol-3-yl)amino)methyl)-4-chloro-1-(1-(oxetan-3-yl)pyrrolidin-3-yl)-1H-imidazole-5-carboxamide] displayed an IC50 of 5 nM.

In turn, `C=CC(=O)N1CC(NC(=O)c2cnc(CNc3n[nH]c4cc(Cl)c(C(C)(C)C)nc34)n2C)C1` [Example 40, N-(1-acryloylazetidin-3-yl)-2-(((5-(tert-butyl)-6-chloro-1H-pyrazolo[4,3-b]pyridin-3-yl)amino)methyl)-1-methyl-1H-imidazole-5-carboxamide] gave an IC50 of 27 nM.

For `C=CC(=O)N(C)C1CN(C(=O)c2c(C)nc(CNc3n[nH]c4cc(Cl)c(C(C)(C)C)cc34)n2C)C1` [Example 51, N-(1-(2-(((5-(tert-butyl)-6-chloro-1H-indazol-3-yl)amino)methyl)-1,4-dimethyl-1H-imidazole-5-carbonyl)azetidin-3-yl)-N-methylacrylamide], inhibition was half-maximal at 42 nM (IC50).

In turn, `C=CS(=O)(=O)N1CC(NC(=O)c2c(C)nc(CNc3n[nH]c4cc(Cl)c(C(C)(C)C)cc34)n2C(C)C)C1` [Example 86, 2-(((5-(tert-butyl)-6-chloro-1H-indazol-3-yl)amino)methyl)-1-isopropyl-4-methyl-N-(1-(vinylsulfonyl)azetidin-3-yl)-1H-imidazole-5-carboxamide] gave an IC50 of 58 nM.

As for `C=CC(=O)N1CC(NC(=O)c2c(C)nc(CNc3n[nH]c4cc(Cl)c(C(C)(C)C)cc34)n2C2CC2)C1` [Example 23, N-(1-acryloylazetidin-3-yl)-2-(((5-(tert-butyl)-6-chloro-1H-indazol-3-yl)amino)methyl)-1-cyclopropyl-4-methyl-1H-imidazole-5-carboxamide], it took 7 nM to reach half-maximal inhibition (IC50).

In turn, `C=CC(=O)N1C[C@@H](C)[C@@H](NC(=O)c2c(F)nc(CNc3n[nH]c4cc(Cl)c(C(C)(C)C)cc34)n2C)C1` [Example 74, N-((3R,4R)-1-acryloyl-4-methylpyrrolidin-3-yl)-2-(((5-(tert-butyl)-6-chloro-1H-indazol-3-yl)amino)methyl)-4-fluoro-1-methyl-1H-imidazole-5-carboxamide] returned an IC50 of 36 nM.

For `C=CC(=O)N1CC(NC(=O)c2c(Cl)nc(CNc3n[nH]c4cc(Cl)c(C(C)(C)C)cc34)n2[C@@H]2CCN(CCOC)C2)C1` [Example 119, (R)-N-(1-acryloylazetidin-3-yl)-2-(((5-(tert-butyl)-6-chloro-1H-indazol-3-yl)amino)methyl)-4-chloro-1-(1-(2-methoxyethyl)pyrrolidin-3-yl)-1H-imidazole-5-carboxamide], the IC50 amounted to 11 nM.

With `C=CC(=O)N1CC(NC(=O)c2c(C(F)F)nc(CNc3n[nH]c4cc(Cl)c(C(C)(C)C)cc34)n2C2CCN(C(C)=O)C2)C1` (stereo not drawn) [Example 96, 1-(1-Acetylpyrrolidin-3-yl)-N-(1-acryloylazetidin-3-yl)-2-(((5-(tert-butyl)-6-chloro-1H-indazol-3-yl)amino)methyl)-4-(difluoromethyl)-1H-imidazole-5-carboxamide], the IC50 is 4 nM.

Turning to `CC#CC(=O)N1CC(NC(=O)c2c(C)nc(CNc3n[nH]c4cc(Cl)c(C(C)(C)C)cc34)n2C(C)C)C1` [Example 82, N-(1-(buty-2-noyl)azetidin-3-yl)-2-(((5-(tert-butyl)-6-chloro-1H-indazol-3-yl)amino)methyl)-1-isopropyl-4-methyl-1H-imidazole-5-carboxamide], the IC50 was 209 nM.

As a reminder, the IC50 is the midpoint of a concentration-inhibition curve. A lower IC50 goes with inhibition by little substance.
